Type in all cases: in vivo
Assay [1] has as its system Gala apple. Description: Thinning study of Gala apple (Michigan), repeat, Example 3. An excerpt: In a study carried out in Michigan, 3'-methyl-(S)-abscisic acid was mixed with 6-benzyladenine and compared with a mixture of S-ABA and 6-benzyladenine. 3'-Methyl-(S)-abscisic acid was formulated as a potassium salt in an aqueous. S-ABA was formulated as potassium salt in an aqueous formulation. […]®, a 2% (w/w) 6-benzyladenine formulation, was used as the source of 6-benzyladenine (“6-BA” in the following tables). The treatments were applied to McIntosh apple in fields when the fruit reached 10 mm in size. Six single tree replicates were sprayed with the equivalent of 100 gallons per acre using a motorized backpack mist blower. All the trees in the study were matched to about the same size and initial cropload. The fruit was harvested at maturity and the average fruit weights for each treatment group were recorded. The results are shown in Table 1 (the lower the number of fruits, the greater the thinning effect of the treatment). The thinning study of Gala apple was repeated in Gala in Michigan following the same protocol described in Example 1. In addition to S-ABA and 3'methyl-(S)-ABA, 3'-propargyl-(S)-ABA was also tested for this effect.

Assay [2] deals with Gala apple. Description: Thinning study of Gala apple (Washington), chemical thinning followed by hand thinning, Example 4. The settings on record: in combination with 6-benzyladenine 28 g/acre; 300 ppm derivative vs 1000 ppm S-ABA. How it is done: Another thinning study of Gala apple was carried out in Washington using a procedure of chemical thinning followed by hand thinning. For chemical thinning, trees (size matched across all the treatment groups) were sprayed with 6-benzyladenine combined with S-ABA or S-ABA derivatives at about the 10 mm fruit diameter timing, as described in Example 1. After a period known as “June drop,” the trees were further thinned by hand to achieve the essentially identical fruit load that was deemed to be the appropriate crop load. This practice will ensure a uni-size apple crop. With this protocol, a lower requirement for the number of fruits removed by hand indicates a more efficacious chemical thinning treatment.

For a further assay, the system named is McIntosh apple. Description: Thinning study of McIntosh apple (Michigan), Example 1. To be noted: in combination with 6-benzyladenine 28 g/acre; 100 ppm derivative vs 1000 ppm S-ABA. An excerpt:
In a study carried out in Michigan, 3'-methyl-(S)-abscisic acid was mixed with 6-benzyladenine and compared with a mixture of S-ABA and 6-benzyladenine. 3'-Methyl-(S)-abscisic acid was formulated as a potassium salt in an aqueous. S-ABA was formulated as potassium salt in an aqueous formulation. […]®, a 2% (w/w) 6-benzyladenine formulation, was used as the source of 6-benzyladenine (“6-BA” in the following tables). The treatments were applied to McIntosh apple in fields when the fruit reached 10 mm in size. Six single tree replicates were sprayed with the equivalent of 100 gallons per acre using a motorized backpack mist blower. All the trees in the study were matched to about the same size and initial cropload. The fruit was harvested at maturity and the average fruit weights for each treatment group were recorded. The results are shown in Table 1 (the lower the number of fruits, the greater the thinning effect of the treatment).

The test system of assay [3] is Gala apple. The experiment in a line: Thinning study of Gala apple (Michigan), Example 2. The settings on record: in combination with 6-benzyladenine 28 g/acre. The text has this: In a study carried out in Michigan, 3'-methyl-(S)-abscisic acid was mixed with 6-benzyladenine and compared with a mixture of S-ABA and 6-benzyladenine. 3'-Methyl-(S)-abscisic acid was formulated as a potassium salt in an aqueous. S-ABA was formulated as potassium salt in an aqueous formulation. […]®, a 2% (w/w) 6-benzyladenine formulation, was used as the source of 6-benzyladenine (“6-BA” in the following tables). The treatments were applied to McIntosh apple in fields when the fruit reached 10 mm in size. Six single tree replicates were sprayed with the equivalent of 100 gallons per acre using a motorized backpack mist blower. All the trees in the study were matched to about the same size and initial cropload. The fruit was harvested at maturity and the average fruit weights for each treatment group were recorded. The results are shown in Table 1 (the lower the number of fruits, the greater the thinning effect of the treatment). A further study was carried out in Michigan, following the same protocol as described in Example 1.

Another assay has as its system Rich Lady peach. Description: Thinning study on Rich Lady peach (Yakima, Washington), Example 5. The settings on record: for Effect on fruit size (percent fruit 125 count/box or larger), in words / Effect on hand thinning required / fruit drop, in words: 30-300 ppm 3′-methyl-(S)-abscisic acid, 300-1000 ppm S-ABA; for Harvest percent fruit 125 ct/box or larger / Number hand thinned per tree: 0.05% Regulaid surfactant; for Number hand thinned per tree: hand thinned after fruit drop period. The method, then:
A study was conducted in Washington (Yakima, Wash.) to determine the effect of S-ABA and 3′-methyl-(S)-abscisic acid on Rich Lady peach thinning. In this study, the initial fruit set prior to treatment was relatively uniform across the treatment groups with the exception of the 300 ppm 3′-methyl-(S)-abscisic acid treatment that had lower fruit set. Following the treatments and a period of time for fruit to drop, the trees were hand-thinned to achieve a desired commercially optimal fruit load.

`C#CCC1=C(C)[C@](O)(/C=C/C(C)=C\C(=O)O)C(C)(C)CC1=O` [3′-propargyl-(S)-ABA, (2Z,4E)-5-((S)-1-hydroxy-2,6,6-trimethyl-4-oxo-3-(prop-2-yn-1-yl)cyclohex-2-en-1-yl)-3-methylpenta-2,4-dienoic acid]: the “Thinning effect, in words” value in the assay on Gala apple [1] (in combination with 6-benzyladenine) was “caused significant thinning”. Besides, the “Thinning potency relative to S-ABA (in words)” value in the assay on Gala apple [2] was “about three times more potent than S-ABA”.

With `CC1=C(C)[C@](O)(/C=C/C(C)=C\C(=O)O)C(C)(C)CC1=O` [3′-methyl-(S)-ABA, (2Z,4E)-5-((S)-1-hydroxy-2,3,6,6-tetramethyl-4-oxocyclohex-2-en-1-yl)-3-methylpenta-2,4-dienoic acid], in the assay with McIntosh apple, the “Thinning potency relative to S-ABA” value is listed as “about 10 times”. The “Thinning potency relative to S-ABA (in words)” value in the assay with Gala apple [3] is given as “more potent than S-ABA”; in the assay with Gala apple [1] (in combination with 6-benzyladenine 28 g/acre, 100 ppm derivative vs 300 ppm S-ABA) it was “about three times more potent than S-ABA”; in the assay on Gala apple [2], “about three times more potent than S-ABA”. In the assay with Rich Lady peach, the “Effect on fruit size (percent fruit 125 count/box or larger), in words” value is reported as “increases with higher use rate”. Besides, in the assay with Rich Lady peach, the “Effect on hand thinning required / fruit drop, in words” value was “caused fruit drop (thinning)”. Besides, the “Harvest percent fruit 125 ct/box or larger” value in the assay with Rich Lady peach (30 ppm) was 25.0%; in the assay on Rich Lady peach (100 ppm), 30.2%; in the assay with Rich Lady peach (300 ppm), 37.6%. For the same compound, the “Number hand thinned per tree” value in the assay on Rich Lady peach (30 ppm) came out at 61.8 per tree; in the assay on Rich Lady peach (100 ppm), 59.2 per tree; in the assay with Rich Lady peach (300 ppm), 45.4 per tree.

For the compound `CC1=CC(=O)CC(C)(C)[C@@]1(O)/C=C/C(C)=C/C(=O)O` [S-ABA, (S)-abscisic acid], in the assay on Rich Lady peach, the “Effect on fruit size (percent fruit 125 count/box or larger), in words” value is recorded as “small increase in the fruit size in a dose dependent manner” and the “Effect on hand thinning required / fruit drop, in words” value is recorded as “did not reduce the hand thinning required”. In the assay on Rich Lady peach (300 ppm), the “Harvest percent fruit 125 ct/box or larger” value worked out at 27.6% and the “Number hand thinned per tree” value is reported as 61.2 per tree. For the same compound, in the assay with Rich Lady peach (1000 ppm), the “Harvest percent fruit 125 ct/box or larger” value is listed as 29.7% and the “Number hand thinned per tree” value was found to be 67.8 per tree.

Source of the values: US9872492B2, “(S)-abscisic acid derivatives for thinning” (Valent BioSciences Corporation, priority 2015, dated 2018).
